Measured values taken from patent publication US20240208969A1, “SUBSTITUTED FUSED BICYCLIC COMPOUNDS AS PARP INHIBITORS AND THE USE THEREOF” (IMPACT THERAPEUTICS (SHANGHAI), INC., priority 2021, published 2024).

test system: MDA-MB-436 cells; assay: Inhibition of proliferation of human breast cancer MDA-MB-436 cell line (CCK-8, 7 days); type: cell-based; conditions: Homo sapiens, 168 h, proliferation of MDA-MB-436, 7 days
Procedure: The cells were cultured in complete medium (DMEM medium +10% FBS+Insulin+glutathione). When the confluence reached about 80%, cells were digested and gently dispensed from the bottom of the dish with a 1 mL pipette. Cell suspension was collected and centrifuged at 500 rpm for 3 min. The supernatant was discarded, and the cell pellet were re-suspended in complete medium. The cells were seeded into a culture dish at an appropriate proportion, and then cultured in a 5% CO2 incubator at 37° C. The assay was carried out when the cells were in optimum condition and the confluence was reached 80%. Cells were harvested in the logarithmic growth phase by using 1 mL pipette gently and then centrifugated at 500 rpm for 3 min. The cells were resuspended by using refresh medium after removing the supernatant and then the cells were counted. The cells were seeded at 3000/well in a 96 well plate and incubated at 37° C. 5% CO2 incubator overnight. In the second day, cells were treated with compound at 8 serially diluted dose with 1000×final concentration in 100% DMSO. The compound was prepared as below: 1000×dilution tested compound solution to 40×test compound solution by adding 5μL, 1000×compound solution to 120 μL Medium (25-fold dilution). The solution was mixed by oscillation. DMSO was used as the control.
The medium was removed from the wells in the plate after the plate was taken out from incubator. Then, fresh medium of 195 μL/per well was added to the 96 well plate. 5μL/per well of 40×test compound solution was added into the 96 well plate. Finally, the plate was incubated for 7 days in a 37° C. 5% CO2 incubator. The medium containing compound was changed once on the fourth day. After 7 days, 20 μL of CCK-8 was added to each well and shake gently, then was cultured for 4 hours. The plate was shaken for 5 min after incubation, the absorbance values of 450 nm. and 650nm wavelengths were recorded respectively (OD=absorbance value of 450 nm−absorbance value of 650 nm) by using the multifunction readout instrument.
Data were analyzed by software GraphPad Prism 6.0. The inhibitory activity of compounds on cell proliferation was plotted using cell survival rate against the compound concentration as coordinates. Cell survival rate %=(ODcompound−ODbackground)/(ODDMSO−ODbackground)×100. The IC50 value was fitted by the s-shaped dose response curve equation: Y=100/(1+10^(log C−log IC50)), and C was the compound concentration.
Table 2 summarizes the inhibitory effect data (IC50) of the compounds on the proliferation of human breast cancer cells MDA-MB-436, wherein ++++ indicates 1<IC50≤10 nM; +++ indicates 10 nM<IC50≤100 nM; ++ indicates 100 nM<IC50≤1 μM; + indicates IC50>1 μM.

Row | Structure (SMILES) | IC50 [nM]
1 | CCn1c(=O)[nH]c2nc(CN3CCN(c4ccc(C(=O)NC)nc4C)CC3)ccc2c1=O [Example 74, 5-(4-((3-ethyl-2,4-dioxo-1,2,3,4-tetrahydropyrido[2,3-d]pyrimidin-7-yl)methyl)piperazin-1-yl)-N,6-dimethylpicolinamide] | > 1000
2 | CCn1c(=O)[nH]c2cc(CN3CCN(c4ncc(C(=O)NC)cc4C)CC3)ccc2c1=O [Example 79, 6-(4-((3-ethyl-2,4-dioxo-1,2,3,4-tetrahydroquinazolin-7-yl)methyl)piperazin-1-yl)-N,5-dimethylnicotinamide] | > 1000
3 | CCn1c(=O)[nH]c2cc(CN3CCN(c4ccc(C(=O)NC)nc4C(C)C)CC3)ccc2c1=O [Example 80, 5-(4-((3-ethyl-2,4-dioxo-1,2,3,4-tetrahydroquinazolin-7-yl)methyl)piperazin-1-yl)-6-isopropyl-N-methylpicolinamide] | > 1000
4 | CNC(=O)c1ccc(N2CCN(Cc3ccc4c(=O)n(CC(F)(F)F)c(=O)[nH]c4c3)CC2)c(C)n1 [Example 87, 5-(4-((2,4-dioxo-3-(2,2,2-trifluoroethyl)-1,2,3,4-tetrahydroquinazolin-7-yl)methyl)piperazin-1-yl)-N,6-dimethylpicolinamide] | > 1000
5 | CNC(=O)c1ccc(N2CCN(Cc3ccc4c(=O)n(C)c(=O)[nH]c4c3)CC2)c(Cl)n1 [Example 98, 6-chloro-N-methyl-5-(4-((3-methyl-2,4-dioxo-1,2,3,4-tetrahydroquinazolin-7-yl)methyl)piperazin-1-yl)picolinamide] | 100 to 1000
6 | CCNC(=O)c1ccc(N2CCN(Cc3ccc4c(=O)n(C)c(=O)[nH]c4c3)CC2)c(Cl)n1 [Example 100, 6-chloro-N-ethyl-5-(4-((3-methyl-2,4-dioxo-1,2,3,4-tetrahydroquinazolin-7-yl)methyl)piperazin-1-yl)picolinamide] | 100 to 1000
7 | CCNC(=O)c1ccc(N2CCN(Cc3ccc4c(=O)n(C)c(=O)[nH]c4c3)CC2)c(C)n1 [Example 101, N-ethyl-6-methyl-5-(4-((3-methyl-2,4-dioxo-1,2,3,4-tetrahydroquinazolin-7-yl)methyl)piperazin-1-yl)picolinamide] | 100 to 1000
8 | CCNC(=O)c1ccc(N2CCN(Cc3cnc4c(=O)n(CC)c(=O)[nH]c4c3)CC2)c(Cl)n1 [Example 102, 6-chloro-N-ethyl-5-(4-((3-ethyl-2,4-dioxo-1,2,3,4-tetrahydropyrido[3,2-d]pyrimidin-7-yl)methyl)piperazin-1-yl)picolinamide] | 10 to 100
9 | CCNC(=O)c1ccc(N2CCN(Cc3cnc4c(=O)n(CC)c(=O)[nH]c4c3)CC2)c(C)n1 [Example 103, N-ethyl-5-(4-((3-ethyl-2,4-dioxo-1,2,3,4-tetrahydropyrido[3,2-d]pyrimidin-7-yl)methyl)piperazin-1-yl)-6-methylpicolinamide] | 10 to 100
10 | CNC(=O)c1ccc(N2CCN(Cc3cc(F)c4c(=O)n(C)c(=O)[nH]c4c3)CC2)c(C)n1 [Example 105, 5-(4-((5-fluoro-3-methyl-2,4-dioxo-1,2,3,4-tetrahydroquinazolin-7-yl)methyl)piperazin-1-yl)-N,6-dimethylpicolinamide] | 100 to 1000
11 | CCn1c(=O)[nH]c2cc(CN3CCN(c4ccc(C(=O)NC)nc4OC)CC3)cnc2c1=O [Example 109, 5-(4-((3-ethyl-2,4-dioxo-1,2,3,4-tetrahydropyrido[3,2-d]pyrimidin-7-yl)methyl)piperazin-1-yl)-6-methoxy-N-methylpicolinamide] | 100 to 1000
12 | CCn1c(=O)[nH]c2cc(CN3CCN(c4ccc5cc[nH]c5c4)CC3)ccc2c1=O [Example 110, 7-((4-(1H-indol-6-yl)piperazin-1-yl)methyl)-3-ethylquinazoline-2,4(1H,3H)-dione] | > 1000
13 | CCn1c(=O)[nH]c2cc(CN3CCN(c4ccc5cn[nH]c5c4)CC3)ccc2c1=O [Example 111, 7-((4-(1H-indazol-6-yl)piperazin-1-yl)methyl)-3-ethylquinazoline-2,4(1H,3H)-dione] | > 1000
14 | CCn1c(=O)[nH]c2cc(CN3CCN(c4ccc5[nH]ncc5c4)CC3)ccc2c1=O [Example 112, 7-((4-(1H-indazol-5-yl)piperazin-1-yl)methyl)-3-ethylquinazoline-2,4(1H,3H)-dione] | > 1000
15 | CCNC(=O)c1ccc(N2CCN(Cc3ccc4c(c3)NC(=O)N(CC)C4)CC2)c(Cl)n1 [Example 118, 5-(4-((3-ethyl-2-oxo-1,2,3,4-tetrahydroquinazolin-7 yl)methyl)piperazin-1-yl)-6-chloro-N-ethylpicolinamide] | 10 to 100
16 | CCN1Cc2c(F)cc(CN3CCN(c4ccc(C(=O)NC)nc4Cl)CC3)cc2NC1=O [Example 120, 6-chloro-5-(4-((3-ethyl-5-fluoro-2-oxo-1,2,3,4-tetrahydroquinazolin-7-yl)methyl)piperazin-1-yl)-N-methylpicolinamide] | 10 to 100
17 | CCNC(=O)c1ccc(N2CCN(Cc3cc(F)c4c(c3)NC(=O)N(CC)C4)CC2)c(C)n1 [Example 121, N-ethyl-5-(4-((3-ethyl-5-fluoro-2-oxo-1,2,3,4-tetrahydroquinazolin-7-yl)methyl)piperazin-1-yl)-6-methylpicolinamide] | 10 to 100
18 | CCN1Cc2c(F)cc(CN3CCN(c4ccc(C(=O)NC)nc4F)CC3)cc2NC1=O [Example 134, 5-(4-((3-ethyl-5-fluoro-2-oxo-1,2,3,4-tetrahydroquinazolin-7-yl)methyl)piperazin-1-yl)-6-fluoro-N-methylpicolinamide] | 10 to 100
19 | CCN1Cc2ccc(CN3CCN(c4ccc(C(=O)NC5CC5)nc4C)CC3)cc2NC1=O [Example 137, N-cyclopropyl-5-(4-((3-ethyl-2-oxo-1,2,3,4-tetrahydroquinazolin-7-yl)methyl)piperazin-1-yl)-6-methylpicolinamide] | 10 to 100

Other lines, results leading:

Row | IC50 [nM] | Structure (SMILES)
20 | 10 to 100 | CCn1c(=O)[nH]c2cc(CN3CCN(c4ccc(C(=O)NC)nc4C)CC3)ncc2c1=O [Example 81, 5-(4-((3-ethyl-2,4-dioxo-1,2,3,4-tetrahydropyrido[4,3-d]pyrimidin-7-yl)methyl)piperazin-1-yl)-N,6-dimethylpicolinamide]
21 | 10 to 100 | CCNC(=O)c1ccc(N2CCN(Cc3cc(F)c4c(=O)n(CC)c(=O)[nH]c4c3)CC2)c(C)n1 [Example 82, N-ethyl-5-(4-((3ethyl-5-fluoro-2,4-dioxo-1,2,3,4-tetrahydroquinazolin-7-yl)methyl)piperazin-1-yl)-6-methylpicolinamide]
22 | 10 to 100 | CCn1c(=O)[nH]c2cc(CN3CCN(c4ccc(C(=O)NC)nc4Br)CC3)ccc2c1=O [Example 94, 6-bromo-5-(4-((3-ethyl-2,4-dioxo-1,2,3,4-tetrahydroquinazolin-7-yl)methyl)piperazin-1-yl)-N-methylpicolinamide]
23 | 10 to 100 | CCNC(=O)c1ccc(N2CCN(Cc3ccc4c(=O)n(CC)c(=O)[nH]c4c3)CC2)c(Br)n1 [Example 95, 6-bromo-N-ethyl-5-(4-((3-ethyl-2,4-dioxo-1,2,3,4-tetrahydroquinazolin-7-yl)methyl)piperazin-1-yl)picolinamide]
24 | 10 to 100 | CNC(=O)c1ccc(N2CCN(Cc3ccc4c(=O)n(C)c(=O)[nH]c4c3)CC2)c(C)n1 [Example 99, N,6-dimethyl-5-(4-((3-methyl-2,4-dioxo-1,2,3,4-tetrahydroquinazolin-7-yl)methyl)piperazin-1-yl)picolinamide]
25 | 1 to 10 | CCNC(=O)c1ccc(N2CCN(Cc3cc(Cl)c4c(=O)n(CC)c(=O)[nH]c4c3)CC2)c(Cl)n1 [Example 126, 6-chloro-5-(4-((5-chloro-3-ethyl-2,4-dioxo-1,2,3,4-tetrahydroquinazolin-7-yl)methyl)piperazin-1-yl)-N-ethylpicolinamide]
26 | 1 to 10 | CCn1c(=O)[nH]c2cc(CN3CCN(c4ccc(C(=O)NC5CC5)nc4Cl)CC3)cc(Cl)c2c1=O [Example 131, 6-chloro-5-(4-((5-chloro-3-ethyl-2,4-dioxo-1,2,3,4-tetrahydroquinazolin-7-yl)methyl)piperazin-1-yl)-N-cyclopropylpicolinamide]
27 | 1 to 10 | CCN1Cc2ccc(CN3CCN(c4ccc(C(=O)NC5CC5)nc4Cl)CC3)cc2NC1=O [Example 132, 6-chloro-N-cyclopropyl-5-(4-((3-ethyl-2-oxo-1,2,3,4-tetrahydroquinazolin-7-yl)methyl)piperazin-1-yl)picolinamide]
28 | 1 to 10 | CCn1c(=O)[nH]c2cc(CN3CCN(c4ccc(C(=O)NC)nc4F)CC3)cc(Cl)c2c1=O [Example 136, 5-(4-((5-chloro-3ethyl-2,4-dioxo-1,2,3,4-tetrahydroquinazolin-7-yl)methyl)piperazin-1-yl)-6-fluoro-N-methylpicolinamide]
